Assay results: article PMC8497620, “Structure and inhibition of Cryptococcus neoformans sterylglucosidase to develop antifungal agents” (Nature Communications, 2021)
Several values for one entry are separate records, joined by “and”; a condition that tells them apart may be missing. Equal entries are not always repeated.

Experiments:
C. neoformans Sgl1 [1] = molecular target: T1, C. neoformans Sgl1 (Cryptococcus neoformans var. grubii, UniProt J9W473); test: Sgl1 inhibition with res-glp substrate (HTS, single-compound dose-response); assay type: biochemical; settings: res-glp as substrate (100 µM), primary screen; read-out: IC50 against Sgl1
T1 sequence (J9W473 entry or part of it): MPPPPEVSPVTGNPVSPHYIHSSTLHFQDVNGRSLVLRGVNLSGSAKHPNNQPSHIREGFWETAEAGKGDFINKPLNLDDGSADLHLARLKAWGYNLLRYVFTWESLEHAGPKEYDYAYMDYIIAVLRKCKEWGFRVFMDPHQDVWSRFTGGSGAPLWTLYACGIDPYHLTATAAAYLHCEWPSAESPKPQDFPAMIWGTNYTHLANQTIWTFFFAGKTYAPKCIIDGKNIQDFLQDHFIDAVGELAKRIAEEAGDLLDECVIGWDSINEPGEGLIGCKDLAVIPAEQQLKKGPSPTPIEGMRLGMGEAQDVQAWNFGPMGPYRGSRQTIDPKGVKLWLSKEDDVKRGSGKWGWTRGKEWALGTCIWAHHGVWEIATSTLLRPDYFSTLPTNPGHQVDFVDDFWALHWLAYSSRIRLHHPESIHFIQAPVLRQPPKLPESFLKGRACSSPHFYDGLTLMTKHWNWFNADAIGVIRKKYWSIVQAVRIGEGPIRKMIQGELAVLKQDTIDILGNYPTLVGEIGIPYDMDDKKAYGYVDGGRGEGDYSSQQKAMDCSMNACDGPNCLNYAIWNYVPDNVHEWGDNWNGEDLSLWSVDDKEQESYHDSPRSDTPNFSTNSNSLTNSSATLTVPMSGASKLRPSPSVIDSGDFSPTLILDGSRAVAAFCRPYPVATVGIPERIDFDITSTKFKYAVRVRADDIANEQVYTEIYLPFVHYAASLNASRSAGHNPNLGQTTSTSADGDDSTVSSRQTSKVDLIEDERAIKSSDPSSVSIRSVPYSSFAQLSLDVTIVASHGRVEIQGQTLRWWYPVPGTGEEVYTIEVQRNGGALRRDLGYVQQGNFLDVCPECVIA
Method: (§1) Resorufin-3β-D-glucopyranoside (res-glp, Sigma-Aldrich) enzyme kinetic assays were performed according to methods described by Urban et al.[16] with modifications. Reaction buffer contained 50 mM citric acid, 176 mM K2HPO4, pH 6, 0.01% Tween-20, and 10 mM sodium taurocholate. The reactions were carried out in black 96-well plates using 20 ng of enzyme with 100 μM res-glp substrate. In all, 10 μL/well of res-glp substrate was added to each well and the reaction was initiated by adding 20 μL enzyme (20 ng). After incubation at 37 °C for 30–40 min, the fluorescence was read at an excitation of 570 (±10) nm and an emission of 610 (±10) nm on a VersaMax™ Microplate Reader from Molecular Devices. A standard curve was prepared with serial dilutions of the free fluorophore, resorufin, in the same volume of assay buffer.
A ChemBridge DIVERSet-CL library (San Diego, CA) containing 50,000 compounds was screened to identify small molecules that inhibit C. neoformans Sgl1. The library was prepared in a 96-well plate format containing a cocktail of 10 compounds per well at 1 mM each in 100% DMSO. The cocktail plates were first diluted to 100 μM each (1:10 dilution in Dulbecco’s phosphate-buffered saline, DPBS) resulting in 10% DMSO. In order to screen the compound cocktails at […] in 1% DMSO in a final reaction volume of 30 μL an aliquot of 3 μL was added to 17 μL of buffer containing 20 ng of enzyme and the reaction was started adding 10 μL of 100 μM res-glp. A negative control without enzyme and positive controls with and without DMSO were prepared. The plates were incubated at 37 °C for 40 min.
The Z′-factor was used for the assessment of the efficiency of the HTS assay for each individual plate. Values greater than 0.5 has been considered as an indicator of an excellent screening assay quality.

[2] = system: human lung epithelial cancer cell line A549; settings: A549 cells, 24 h, MTT
Method: The cells were maintained in Dulbecco’s modified eagle medium containing 10% fetal bovine serum and 1% penicillin–streptomycin. At passage 11, 10^5 cells were transferred into each well of 96-well plates and cultured for 18–24 h for the cells to adhere to the well surface. After, the medium was removed and a fresh medium containing the selected compounds at a concentration range of 1–512 μM were added to the wells. Controls with equivalent serial concentrations of DMSO were also evaluated and compared with a control without DMSO. The plate was incubated at 37 °C with 5% CO2. After 24 h, the supernatant was removed and 50 μL of 5 mg/mL 3-(4,5-dimethylthiazol-2-yl)-2,5-diphenyltetrazoliumbromide (MTT) solution in phosphate-buffered saline (PBS) was added to each well. The plates were incubated for an additional 4 h and the formazan crystals formed inside the cell was dissolved by adding 50 μL DMSO.

C. neoformans Sgl1 [3] = molecular target: T1, C. neoformans Sgl1; test: Kinetic evaluation of erg-glc and C6-NBD-GlcCer hydrolysis by Sgl1 (Triton X-100 mixed micelles, HPLC); assay type: biochemical
Method: A 50 μL volume of Cn Sgl1 wild type and 50 μL of mixed micelles of lipid and Triton X-100 in 50 mM Bis-Tris buffer with 150 mM NaCl, 5 mM βME, and 5 mM DTT were mixed and incubated at 37 °C for 10 min (erg-glc, Avanti Polar Lipids) and 1 h (C6-NBD-glcCer, Matreya). For the substrate erg-glc the amount of protein was 5 ng. 150 ng protein was used for reactions with C6-NBD-GlcCer. After the incubation period, each reaction was quenched with a 2:1 chloroform:methanol solution and the organic phase was collected and dried. Then, the lipid content was resuspended in 50 μL methanol and applied to HPLC (Agilent Technologies). Total erg-glc and ergosterol was detected using absorbance at 282 nm on a C-8 column with a flow rate of 0.5 ml/min in methanol/water 90:10 ratio buffered with 1 mM ammonium formate and 0.2% formic acid. A 85:15 ratio of the same eluent was used for C6-NBD-GlcCer and C6-NBD-ceramide monitoring the fluorescence at 470/530 nm excitation/emission. The total area of product was normalized by the total area of its respective substrate.

C. neoformans Sgl1 [4] = test: Resorufin-3β-D-glucopyranoside enzyme kinetic assay and HTS assay parameters; assay type: biochemical, Cryptococcus neoformans; settings: for Picomol of resorufin produced: time 20 min, 8 replicates
Method: as §1, with “buffer. All reactions were linear with respect to time and protein concentration and the pH, temperature, and dimethyl sulfoxide (DMSO) optimal tolerance was verified.” for “buffer.”
Supplementary Figure 6. High-throughput screening assay parameters. a. Resorufin 3β-D-glucopyranoside (res-glp) hydrolysis by Sgl1 releases the fluorescent product resorufin and glucose. b. Detection linearity of the system. c. Temperature evaluation of Sgl1 activity (n=6). d.
Reaction dependence on pH (n=4). e. DMSO tolerance (n=6). f. Enzyme concentration linearity (n=4). The reaction is linear up to 0.4 pmol of Sgl1 in presence of the substrate res-glp (100 µM). Data presented as mean values +/- SD of 2-3 independent experiments performed in duplicate (c-f). g.Time linearity until 50 min (n=4). h. Eight substrate concentrations tested with 0.2 pmol of Sgl1 until 20 min. i. Kinetic curve of Sgl1 (n=4). Error bars represent standard deviation of four independent experiments performed in technical duplicates. j. Kinetic parameters of Sgl1 reaction with res-glp.
(1 picture or pasted object on this page, not shown here)

`CN1C[C@H](Nc2nc(C(C)(C)C)nc3c2cnn3C)C[C@H]1CO` [Hit 14] was tested, and the IC50 (C. neoformans Sgl1 [1]) was 1000 nM and the “LD50 (lethal dose 50)” value [2] was 357 µM.
`CC(C)[C@@H](C)/C=C/[C@@H](C)[C@H]1CC[C@H]2C3=CC=C4C[C@@H](O[C@@H]5O[C@H](CO)[C@@H](O)[C@H](O)[C@H]5O)CC[C@]4(C)[C@H]3CC[C@]12C` [erg-glc, ergosterol 3β-D-glucoside] was tested, and the “Turnover (mol ergosterol / sec/ mol enzyme)” value (C. neoformans Sgl1 [3]; 0.07 mol% Erg-glc) was 0.1064 mol ergosterol / sec/ mol enzyme and 0.1082 mol ergosterol / sec/ mol enzyme, the “Turnover (mol ergosterol / sec/ mol enzyme)” value (C. neoformans Sgl1 [3]; 0.10 mol% Erg-glc) was 0.1849 mol ergosterol / sec/ mol enzyme and 0.1742 mol ergosterol / sec/ mol enzyme and the “Turnover (mol ergosterol / sec/ mol enzyme)” value (C. neoformans Sgl1 [3]; 0.20 mol% Erg-glc) was 0.3045 mol ergosterol / sec/ mol enzyme and 0.2862 mol ergosterol / sec/ mol enzyme. For the same compound, the “Turnover (mol ergosterol / sec/ mol enzyme)” value (C. neoformans Sgl1 [3]; 0.50 mol% Erg-glc) was 0.4688 mol ergosterol / sec/ mol enzyme and 0.4091 mol ergosterol / sec/ mol enzyme, the “Turnover (mol ergosterol / sec/ mol enzyme)” value (C. neoformans Sgl1 [3]; 0.90 mol% Erg-glc) was 0.6080 mol ergosterol / sec/ mol enzyme and 0.5033 mol ergosterol / sec/ mol enzyme and the “Turnover (mol ergosterol / sec/ mol enzyme)” value (C. neoformans Sgl1 [3]; 1.20 mol% Erg-glc) was 0.5944 mol ergosterol / sec/ mol enzyme and 0.5189 mol ergosterol / sec/ mol enzyme. The “Turnover (mol ergosterol / sec/ mol enzyme)” value (C. neoformans Sgl1 [3]; 2.00 mol% Erg-glc) was 0.6438 mol ergosterol / sec/ mol enzyme and 0.6016 mol ergosterol / sec/ mol enzyme, the “Km, Michaelis-Menten best-fit value” (C. neoformans Sgl1 [3]; source data Fig 1d) was 0.3118 mol% and the “Vmax, Michaelis-Menten best-fit value, Turnover” value (C. neoformans Sgl1 [3]; source data Fig 1d) was 0.721 s⁻¹. The KM (C. neoformans Sgl1 [3]; substrate of Sgl1, Triton X-100 mixed micelles, 37 °C) was 0.31 ± 0.04 mol%.
For `O=c1ccc2nc3ccc(O)cc3oc-2c1` [resorufin], the “Picomol of resorufin produced” value (C. neoformans Sgl1 [4]; substrate concentration 0.8 µM) was 13.6869 Picomol and 10.2624 Picomol and 15.333 Picomol and 8.2899 Picomol and 7.897 Picomol and 8.1513 Picomol and 7.834 Picomol and 9.766 Picomol, the “Picomol of resorufin produced” value (C. neoformans Sgl1 [4]; substrate concentration 1.6 µM) was 22.652 Picomol and 16.8084 Picomol and 22.0089 Picomol and 13.8077 Picomol and 14.311 Picomol and 13.7411 Picomol and 16.5589 Picomol and 17.8661 Picomol and the “Picomol of resorufin produced” value (C. neoformans Sgl1 [4]; substrate concentration 3.125 µM) was 38.3651 Picomol and 20.7516 Picomol and 22.1703 Picomol and 24.2149 Picomol and 22.4235 Picomol and 18.9404 Picomol and 21.8512 Picomol and 25.5122 Picomol. The “Picomol of resorufin produced” value (C. neoformans Sgl1 [4]; substrate concentration 6.25 µM) was 43.9839 Picomol and 34.2216 Picomol and 50.5101 Picomol and 33.7929 Picomol and 44.5629 Picomol and 40.9973 Picomol and 53.26 Picomol and 50.9019 Picomol, the “Picomol of resorufin produced” value (C. neoformans Sgl1 [4]; substrate concentration 12.5 µM) was 71.213 Picomol and 36.0642 Picomol and 41.6688 Picomol and 71.5524 Picomol and 70.9838 Picomol and 75.8794 Picomol and 76.3919 Picomol and 81.7237 Picomol and the “Picomol of resorufin produced” value (C. neoformans Sgl1 [4]; substrate concentration 25 µM) was 72.1659 Picomol and 113.232 Picomol and 127.381 Picomol and 122.744 Picomol and 134.032 Picomol and 119.303 Picomol and 123.078 Picomol and 139.365 Picomol. For the same compound, the “Picomol of resorufin produced” value (C. neoformans Sgl1 [4]; substrate concentration 50 µM) was 180.011 Picomol and 203.084 Picomol and 186.676 Picomol and 209.238 Picomol and 194.059 Picomol and 207.198 Picomol and 188.267 Picomol and 183.529 Picomol and the “Picomol of resorufin produced” value (C. neoformans Sgl1 [4]; substrate concentration 100 µM) was 305.03 Picomol and 313.72 Picomol and 318.728 Picomol and 338.834 Picomol and 336.378 Picomol and 332.942 Picomol and 323.184 Picomol and 353.074 Picomol.
In the case of `CN1C[C@H](NS(=O)(=O)c2cc(Cl)ccc2Cl)C[C@H]1CO` [Hit 13], the IC50 (C. neoformans Sgl1 [1]) is reported as 2000 nM and the “LD50 (lethal dose 50)” value [2] is reported as 217.3 µM.
For `O=c1ccc2nc3ccc(O[C@@H]4O[C@H](CO)[C@@H](O)[C@H](O)[C@H]4O)cc3oc-2c1` [Resorufin 3β-D-glp, resorufin-3β-D-glucopyranoside, reference compound], the “Turnover, min-1 (Mean)” value (C. neoformans Sgl1 [4]; 0.8 µM Resorufin 3β-D-glp) was 0.1166 min⁻¹, the “Turnover, min-1 (Mean)” value (C. neoformans Sgl1 [4]; 1.6 µM Resorufin 3β-D-glp) was 0.2022 min⁻¹ and the “Turnover, min-1 (Mean)” value (C. neoformans Sgl1 [4]; 3.125 µM Resorufin 3β-D-glp) was 0.2828 min⁻¹. For the same compound, the “Turnover, min-1 (Mean)” value (C. neoformans Sgl1 [4]; 6.25 µM Resorufin 3β-D-glp) was 0.5182 min⁻¹, the “Turnover, min-1 (Mean)” value (C. neoformans Sgl1 [4]; 12.5 µM Resorufin 3β-D-glp) was 0.7736 min⁻¹ and the “Turnover, min-1 (Mean)” value (C. neoformans Sgl1 [4]; 25 µM Resorufin 3β-D-glp) was 1.399 min⁻¹. The “Turnover, min-1 (Mean)” value (C. neoformans Sgl1 [4]; 50 µM Resorufin 3β-D-glp) was 2.307 min⁻¹, the “Turnover, min-1 (Mean)” value (C. neoformans Sgl1 [4]; 100 µM Resorufin 3β-D-glp) was 3.899 min⁻¹ and the “Vmax, Michaelis-Menten best-fit value, Turnover” value (C. neoformans Sgl1 [4]; res-glp as Sgl1 substrate, source data Fig S6i) was 9.522 min⁻¹. It also gave a Km (C. neoformans Sgl1 [4]; res-glp as Sgl1 substrate, source data Fig S6i, read-out: Km, Michaelis-Menten best-fit value) of 147 µM.
With `Cc1ccsc1CN(CCN(C)C)Cc1ccc2nonc2c1` [Hit 10] the “LD50 (lethal dose 50)” value [2] was 301.8 µM.
`Cc1[nH]c2ccc(CNc3nccc(N)n3)cc2c1C` [Hit 6] was tested, and the IC50 (C. neoformans Sgl1 [1]) was 2000 nM and the “LD50 (lethal dose 50)” value [2] was 181.3 µM.
